{"source": "patent US20010041670A1", "about": "“Thrombospondin-binding region of histidine-rich glycoprotein and method of use” (priority 1999, published 2001)", "key": {"CD36 null mice": {"tested_on": "CD36 null mice", "assay": "In vivo corneal angiogenesis assay, CD36 null mice", "method": "(§1) FIG. 3. HRGP abrogates the effect of endogenous TSP in the corneal angiogenesis assay. Pellets containing bFGF at various doses with and without HRGP (50 ng) were implanted into the corneas of wild type C57BL/6 (closed symbols) or CD 36 null mice (open symbols), and area of neovascularization was measured after five days. HRGP (--●--) augmented the dose-dependent effect of bFGF (—▪—) in the wild type mice (p=0.0004 by ANOVA). In CD36 null mice, there was an enhanced dose response to bFGF (—□—) (p=0.01), but no effect seen with the addition of HRGP (--◯--). Results represent mean±SE of>6 replicates.\n(§2) In vivo corneal angiogenesis assays. Pellets composed of hydron (Hydro Med Sciences, Cranbury, N.J.) and sucralfate (Teva Pharmaceuticals, North Wales, Pa.) were mixed with proteins or growth factors, and were prepared and implanted into the comeas of C57B1/6 mice as described (38). After 5 days, eyes were viewed under a dissecting microscope and photographed with a Sony DKC-1000 digital camera. The area of neovascularization was calculated by measuring vessel length from limbus towards the pellet and number of clock hours of vascularization as described (39, 40). Studies were approved by the Institutional Animal Use Committee.\nIn fact, the dose response curve of bFGF in wild type mice in the presence of HRGP was similar to that seen with bFGF alone in the CD36 null mice. […]"}, "[1]": {"tested_on": "Human dermal microvascular EC (HMVEC)", "assay": "Tube formation assay on Matrigel", "assay_type": "cell-based", "settings": "Matrigel", "method": "Tube Formation Assay. Early passage (P2 or P3) HMVEC in 0.2% MVGS were grown on 150 μl of Matrigel (Becton Dickinson, Bedford, Mass., USA) at 3×10^4 cells per well of 48-well plates. Reagents were added and cells were incubated at 5% CO2, 37° C. for 24 hours then photographed. Images were scanned and number of branched structures was counted using Scion Image software (Frederick, Md., USA).\nHRGP inhibits the anti-angiogenic effect of TSP-1 in vitro. Microvascular EC were grown on Matrigel under low serum concentrations (0.2%) in the presence of bFGF (2 ng/ml), conditions which are known to induce tube formation. […] The anti-angiogenic activity of TSP-1 was abolished by the addition of HRGP (15 nM), which restored the ability of the EC to form tubular structures. (c)."}, "[2]": {"tested_on": "Human dermal microvascular EC (HMVEC)", "assay": "Endothelial cell chemotaxis assay (modified Boyden chamber)", "assay_type": "cell-based", "settings": "TSP-1 2 nM; 3 separate experiments", "method": "Endothelial Cell (EC) chemotaxis assays were performed as described using a modified Boyden chamber with 8 μm gelatin-coated membranes (22). Briefly, confluent flasks of HMVEC were grown in 0.1% MVGS overnight and plated at 3×10^4 cells per well on a gelatinized porous membrane (Osmonics, Minnetonka, Minn., USA). Reagents were added to wells and cells were allowed to migrate at 5% CO2, 37° C. for 4 hours. Membranes were stained and the number of cells migrating was counted. Results were expressed as the percentage of maximum cells migrating towards bFGF (38-113 cells/10 high power fields) minus the number of cells migrating in the absence of bFGF (4-13cells/10 hpf).\nHRGP inhibits the anti-chemotactic effect of TSP-1. Because the type I repeat also mediates the interaction of TSP-1 with HRGP, we studied the effect of HRGP on angiogenesis. EC migration towards bFGF was measured using a modified Boyden chamber with an 8 μm gelatin-coated membrane in the presence and absence of TSP-1 (2 nM) and increasing concentrations of HRGP (0-100 nM). Data from 3 separate experiments are expressed as a percentage of migration in the presence of bFGF alone. We measured migration of CD36-expressing microvascular EC towards bFGF. The addition of TSP-1 inhibited bFGF-induced migration of EC (approx. 30%±3% of control 100% value without added TSP-1). […]"}, "C57B1/6 mice": {"tested_on": "C57B1/6 mice", "assay": "In vivo subcutaneous Matrigel plug assay", "method": "In vivo subcutaneous Matrigel plug assays were performed as described (23). Briefly, 500 μl of Matrigel mixed with proteins or growth factors was injected subcutaneously near the abdominal midline of C57B1/6 mice. Gels were removed after 10 days, fixed in 1% paraformaldehyde, embedded in paraffin, sectioned, and stained with hematoxylin and eosin. Immunohistochemistry was performed on unstained sections using an anti-human von Willebrand factor (vWF) IgG (Dako, Glostrup, Denmark) or isotype-matched control (Sigma) and a biotin-streptavidin-peroxidase antibody and development system (Vector Laboratories, Burlingame, Calif.) as described (24) and counterstained with Mayer's hematoxylin (ImmunoGenex, San Ramon, Calif., USA). After scanning, the degree of angiogenesis was determined by counts of vWF-positive blood vessels using Scion Image. For breast tissue, frozen sections of freshly obtained human breast carcinoma were incubated with rabbit antibody to HRGP or CSVTCG or murine monoclonal antibody to TSP, or isotype-matched controls (Sigma), and developed as above. These studies were approved by the Institutional Animal Use Committee.\nMatrigel mixed was injected subcutaneously into the midline of mice and resulting plugs were harvested after 10 days, fixed, and paraffin embedded, sectioned, stained with. hematoxylin and eosin, and photographed at 200× magnification. […]"}, "binding of HRGP to TSP-1": {"biological_target": "T1, binding of HRGP to TSP-1 (Homo sapiens, UniProt P04196)", "T1 construct": "from tissue; host or cells: HRGP from human plasma; TSP-1 from human platelet releasate", "T1 sequence (P04196 19-525)": "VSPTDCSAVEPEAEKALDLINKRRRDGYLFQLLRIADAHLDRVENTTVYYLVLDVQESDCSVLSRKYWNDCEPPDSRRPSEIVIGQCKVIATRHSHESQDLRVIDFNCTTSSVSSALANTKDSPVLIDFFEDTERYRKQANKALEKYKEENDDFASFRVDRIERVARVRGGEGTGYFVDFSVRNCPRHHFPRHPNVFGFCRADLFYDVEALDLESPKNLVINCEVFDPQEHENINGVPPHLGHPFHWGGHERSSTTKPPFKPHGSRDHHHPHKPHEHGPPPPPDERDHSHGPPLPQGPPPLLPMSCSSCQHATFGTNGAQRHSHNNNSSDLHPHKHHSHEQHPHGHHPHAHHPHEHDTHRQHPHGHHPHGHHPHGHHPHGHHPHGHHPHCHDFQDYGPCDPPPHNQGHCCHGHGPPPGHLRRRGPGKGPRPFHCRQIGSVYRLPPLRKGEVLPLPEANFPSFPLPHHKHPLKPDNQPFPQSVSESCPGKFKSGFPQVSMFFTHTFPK", "assay": "ELISA of HRGP binding to immobilized TSP-1 in presence of peptides", "settings": "for inhibition of binding of HRGP to immobilized TSP-1: peptide 50 μM", "method": "(§3) Enzyme-linked immunosorbent assays (ELISA) were performed as described (6). Briefly, TSP-1 (4μg/ml) in coating buffer (0.5M sodium carbonate, pH 9.6) was applied to microtiter plates (Becton Dickinson, Lincoln Park, N.J., USA) for 3 hours at 37° C. After washing with wash buffer (0.05% Tween in 20 mM Tris, 150mM NaCl, pH 7.5), and blocking for 1 hour at 37° C. with 1% BSA in Tris-Tween, HRGP in varying amounts in the presence and absence of peptide was added for 18h at 4° C. After washing, alkaline phosphatase-conjugated anti-HRGP or nonimmune rabbit Fab'2 was added for 3h at 37° C., after which p-nitrophenyl phosphate substrate was added and optical density (OD) at 405 nm was read in a microplate reader (Molecular Devices, Menlo Park, Calif., USA).\n(§4) HRGP or plasminogen binding to TSP-1 immobilized on plastic wells was measured by enzyme-linked immunosorbent assay (ELISA) as described above, using an alkaline phosphatase-conjugated anti-HRGP antibody and p-nitrophenyl phosphate substrate.\n(§5) As an additional control, the binding of plasminogen to TSP-1 was measured.\nVarying amounts of HRGP were added alone or in the presence of increasing concentrations of the peptide CSVTCG to TSP-1 coated wells. Binding was measured by ELISA as described above."}, "[3]": {"biological_target": "T2, 125I-TSP-1 binding to HRGP (Homo sapiens, UniProt P07996)", "T2 construct": "TSP-1 was purified from human platelet releasate; from tissue; host or cells: TSP-1 from human platelet releasate; HRGP from human plasma", "T2 sequence (P07996 19-1170)": "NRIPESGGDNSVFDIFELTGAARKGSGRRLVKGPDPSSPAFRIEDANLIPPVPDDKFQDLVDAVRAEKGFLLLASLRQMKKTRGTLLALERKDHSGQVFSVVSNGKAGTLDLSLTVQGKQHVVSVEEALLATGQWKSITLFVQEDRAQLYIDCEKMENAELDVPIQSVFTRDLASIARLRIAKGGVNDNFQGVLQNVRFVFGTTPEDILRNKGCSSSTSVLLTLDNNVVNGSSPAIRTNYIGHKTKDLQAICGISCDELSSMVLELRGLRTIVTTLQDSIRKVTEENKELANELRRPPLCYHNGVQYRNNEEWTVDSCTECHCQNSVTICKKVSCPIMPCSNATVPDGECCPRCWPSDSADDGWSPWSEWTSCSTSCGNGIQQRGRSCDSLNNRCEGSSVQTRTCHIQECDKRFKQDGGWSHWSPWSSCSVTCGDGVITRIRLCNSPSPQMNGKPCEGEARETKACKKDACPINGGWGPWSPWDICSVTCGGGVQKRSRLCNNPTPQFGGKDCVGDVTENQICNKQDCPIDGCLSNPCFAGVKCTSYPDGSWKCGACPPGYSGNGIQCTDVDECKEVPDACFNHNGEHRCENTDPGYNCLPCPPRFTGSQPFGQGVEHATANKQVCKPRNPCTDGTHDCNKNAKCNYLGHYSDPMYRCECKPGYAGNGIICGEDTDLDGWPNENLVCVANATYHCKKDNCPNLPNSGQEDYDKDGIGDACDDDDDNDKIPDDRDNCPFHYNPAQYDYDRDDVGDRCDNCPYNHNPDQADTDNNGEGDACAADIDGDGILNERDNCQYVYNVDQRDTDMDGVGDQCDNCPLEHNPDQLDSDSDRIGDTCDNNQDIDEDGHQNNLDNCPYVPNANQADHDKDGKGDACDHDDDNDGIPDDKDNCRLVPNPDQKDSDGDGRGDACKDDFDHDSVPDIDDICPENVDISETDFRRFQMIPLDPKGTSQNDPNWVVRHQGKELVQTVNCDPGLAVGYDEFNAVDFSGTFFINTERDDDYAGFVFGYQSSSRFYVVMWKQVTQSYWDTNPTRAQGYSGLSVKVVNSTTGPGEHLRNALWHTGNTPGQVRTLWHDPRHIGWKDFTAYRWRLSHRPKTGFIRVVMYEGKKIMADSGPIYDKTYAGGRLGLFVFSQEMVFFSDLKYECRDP", "assay": "Solid phase binding assay, competition with CD36 fusion proteins", "settings": "increasing concentrations of fusion protein", "method": "Solid phase binding assays were performed as described (18). Briefly, HRGP in carbonate buffer was immobilized on 96-well strips (Immulon-4 Remove-a-well, Dynatech Laboratories Inc., Burlington, Mass., USA) overnight at 4° C. After blocking with 1% BSA, ^125I-TSP-1 was incubated in the presence of varying concentrations of CD36-FP in triplicate, and bound radioactivity was quantified on a gamma counter. Non-specific binding was determined by carrying out binding in the presence of excess unlabeled ligand.\nTSP-1 binding to HRGP: competition with CD36."}, "wild type C57BL/6 mice": {"tested_on": "wild type C57BL/6 mice", "assay": "In vivo corneal angiogenesis assay, wild type mice", "method": "as §1, §2\nIn a second type of in vivo experiment, hydron/sucralfate pellets containing bFGF, TSP-1, and/or HRGP were implanted in the corneas of C57B1/6 mice. […]"}, "[4]": {"biological_target": "T3, binding of radiolabelled HRGP to TSP-1 (Homo sapiens, UniProt P04196)", "T3 construct": "TSP-1 was purified from human platelet releasate; from tissue; host or cells: HRGP from human plasma; TSP-1 from human platelet releasate", "T3 sequence (P04196 19-525)": "T1 sequence (P04196 19-525)", "assay": "Ligand blot of radiolabelled HRGP on TSP-1", "settings": "autoradiography; CSVTCG peptide at 50 μM", "protocol": "Ligand Blot: TSP-1 was resolved on an SDS-polyacrylamide gel and electrophoretically blotted onto a polyvinylidene difluoride (PVDF) membrane. The membrane was blocked with 150 mM NaCl, 20 mM Tris (TBS) containing 5% BSA. Following three washes with TBS, washes the membranes were cut into strips and incubated with ligand(s) diluted in TBS, 0.1% BSA for 1 hour, washed, and developed by autoradiography.\nLigand blots show binding of radiolabelled HRGP to TSP-1 that had been subjected to SDS-PAGE and transferred to nitrocellulose, then developed by autoradiography."}, "[5]": {"biological_target": "binding of plasminogen to TSP-1 (Homo sapiens, UniProt P00747)", "sequence (P00747 20-810 limits assumed)": "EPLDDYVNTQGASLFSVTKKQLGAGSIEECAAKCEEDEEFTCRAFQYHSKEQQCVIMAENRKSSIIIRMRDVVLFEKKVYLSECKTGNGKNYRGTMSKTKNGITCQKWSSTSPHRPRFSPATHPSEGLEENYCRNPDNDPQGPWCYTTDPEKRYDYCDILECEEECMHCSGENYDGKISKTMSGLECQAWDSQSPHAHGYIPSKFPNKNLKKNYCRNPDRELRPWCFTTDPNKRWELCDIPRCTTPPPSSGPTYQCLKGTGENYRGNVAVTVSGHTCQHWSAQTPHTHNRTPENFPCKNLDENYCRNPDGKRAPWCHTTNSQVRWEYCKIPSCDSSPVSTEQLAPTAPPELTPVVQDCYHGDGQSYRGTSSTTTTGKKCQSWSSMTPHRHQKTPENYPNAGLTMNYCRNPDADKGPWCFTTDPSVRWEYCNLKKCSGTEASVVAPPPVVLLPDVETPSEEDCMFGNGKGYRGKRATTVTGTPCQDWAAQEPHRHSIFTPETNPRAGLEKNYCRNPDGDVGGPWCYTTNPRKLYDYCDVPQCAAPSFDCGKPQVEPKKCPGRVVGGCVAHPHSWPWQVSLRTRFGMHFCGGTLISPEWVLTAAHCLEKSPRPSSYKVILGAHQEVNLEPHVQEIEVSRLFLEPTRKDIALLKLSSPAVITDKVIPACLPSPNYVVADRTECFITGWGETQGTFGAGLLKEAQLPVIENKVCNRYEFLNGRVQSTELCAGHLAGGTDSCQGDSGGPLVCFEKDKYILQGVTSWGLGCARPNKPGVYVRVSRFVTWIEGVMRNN", "settings": "ELISA; control interaction", "method": "as §3, §4, §5"}}}
{"substance": "TSP-1: 450 kDa homotrimeric adhesive glycoprotein purified from human platelet releasate; inhibitor of angiogenesis", "values": [{"measurement": "inhibition of bFGF-induced angiogenesis", "setting": "CD36 null mice; CD36 null mice", "value": "did not inhibit"}, {"measurement": "effect on bFGF-induced tube formation by EC", "setting": "[1]; TSP-1 2 nM, bFGF 2 ng/ml, 0.2% serum", "value": "inhibited"}, {"measurement": "EC migration towards bFGF, percentage of control without added TSP-1", "setting": "[2]", "value": "approx. 30%±3%"}, {"measurement": "blood vessels/mm^2, % of that seen with bFGF", "setting": "C57B1/6 mice; TSP-1 added to bFGF in Matrigel, 10 days", "value": "14±8", "unit": "%"}]}
{"substance": "TVSGCC: scrambled peptide control", "values": [{"measurement": "inhibition of binding of HRGP to immobilized TSP-1", "setting": "binding of HRGP to TSP-1", "value": "not and had no effect"}]}
{"substance": "CD36 FP93-120: CD36-glutathione-S-transferase (GST) fusion protein shown to bind TSP-1 (YRVRFLAKENVTQDAEDNTVSFLQPNGA; left off: a dimerising Fc or GST)", "values": [{"measurement": "inhibition of 125I-TSP-1 binding to immobilized HRGP", "setting": "[3]", "value": "inhibited"}]}
{"substance": "bFGF: Recombinant human basic fibroblast growth factor", "values": [{"measurement": "Area of Neovascularization (mm^2) ± SE", "setting": "CD36 null mice; CD36 −/− mouse, corneal pellet, 5 days", "value": "2.10 ± 0.14", "unit": "mm^2"}, {"measurement": "induction of tube formation", "setting": "[1]; agent alone, low serum", "value": "induced tube formation"}, {"measurement": "Area of Neovascularization (mm^2) ± SE", "setting": "wild type C57BL/6 mice; Wild type mouse, corneal pellet, 5 days", "value": "2.35 ± 0.10", "unit": "mm^2"}, {"measurement": "eyes with vigorous outgrowth of blood vessels (angiogenesis)", "setting": "wild type C57BL/6 mice; pellets: bFGF 50 ng, TSP-1 200 ng, HRGP 100 ng, after 5 days", "value": "13/13"}, {"measurement": "angiogenesis in Matrigel plug (histology)", "setting": "C57B1/6 mice; plugs harvested after 10 days, representative images of 4 experiments", "value": "stimulated angiogenesis"}]}
{"substance": "RGDS: control TSP-1 peptide", "values": [{"measurement": "inhibition of binding of HRGP to immobilized TSP-1", "setting": "binding of HRGP to TSP-1", "value": "not and had no effect"}]}
{"substance": "GST: glutathione-S-transferase alone, control", "values": [{"measurement": "inhibition of 125I-TSP-1 binding to immobilized HRGP", "setting": "[3]", "value": "had no effect"}]}
{"substance": "cysteine-serine-valine-threonine-cysteine-glycine [CSVTCG]", "values": [{"measurement": "peptide concentration at which inhibition of HRGP binding to TSP-1 reached maximum", "setting": "binding of HRGP to TSP-1; concentration-dependent inhibition", "value": 50, "unit": "µM"}, {"measurement": "inhibition of binding of HRGP to immobilized TSP-1", "setting": "binding of HRGP to TSP-1", "value": "inhibited"}, {"measurement": "binding of radiolabelled HRGP to TSP-1 resolved on SDS-PAGE and blotted", "setting": "[4]", "value": "completely abolished"}, {"measurement": "inhibition of binding of plasminogen to TSP-1", "setting": "[5]", "value": "not inhibited"}]}
